# Assay results taken from US4529602A, “Method for treatment or prophylaxis of gastro-intestinal disease” (priority 1981, dated 1985).
# Where a name gives a salt, the structure may show the parent alone.
# How the values were obtained:
# gastric acid secretion = assay: Preventive effect on gastric acid secretion in pylorus-ligated rats; type: in vivo, Male SD-strain rats; conditions: 100 mg/kg oral, 5 h after administration
# Description: (§1) Preventive effect on acid and pepsin secretions
# (§2) Male SD-strain rats (6 to 7 weeks old) were starved for 48 hours, and then the pylori were ligated. Immediately after ligation, a solution or suspension of a test compound in distilled water was administered orally into the stomachs in an amount of 0.2 ml per 100 g of body weight (Dose: 100 mg/kg). Five hours after said administration of the test compound, the rats were sacrificed and the stomachs were removed. The gastric contents were centrifuged at 2,500 rpm for 10 minutes and the gastric juice was collected as the supernatant. The concentration of pepsin in the gastric juice was determined by Anson's method (c.f., J. Gen. Physiol., 22, pp. 77-89 (1938)) using hemoglobin as the substrate, and the preventive effect of the test compound on the pepsin secretion was estimated in terms of "decrease in pepsin concentration" according to the following formula: [formula]
# On the other hand, the concentration of free acid in the gastric juice was determined by titrating said gastric juice to pH 7.0 with 0.1N NaOH, and the preventive effect of the test compound on the gastric acid secretion was estimated in terms of "the decrease in acidity of gastric juice" according to the following formula: [formula] (Results)
# pepsin secretion = assay: Preventive effect on pepsin secretion in pylorus-ligated rats; type: in vivo, Male SD-strain rats; conditions: 100 mg/kg oral, 5 h after administration
# Description: as §1, §2
# aspirin-induced ulcers = assay: Effect on aspirin-induced ulcers; type: in vivo, Male Donryu-strain rats; conditions: aspirin 200 mg/kg
# Description: Male Donryu-strain rats (8 to 9 weeks old) were starved overnight, and a solution or suspension of a test compound in distilled water was administered orally into the stomachs in an amount of one ml per 100 g of body weight. Half an hour later, a suspension of aspirin in 0.25% CMC solution was administered orally to the rats in an amount of 0.5 ml per 100 g of body weight (Dose: 200 mg/kg). Four hours after the administration of aspirin, the rats were sacrificed and the stomachs were removed and inflated by injecting 10 ml of 1% formalin solution to fix the inner layers of the gastric walls. The stomach was then incised along the greater curvature and the lengths of the lesions were measured and summated to give ulcer index (in mm) for each animal. The preventive effect of the test compound on aspirin-induced ulcers were calculated by the following formula: [formula] (Results)
compound,measurement,setting,value
"CC(C)c1cc2c(cc1S(=O)(=O)O)[C@@]1(C)CCC[C@@](C)(C(=O)O)[C@@H]1CC2 [2 (2-Dimethylaminoethyl)amine salt, sulfodehydroabietic acid di(2-dimethylaminoethylamine)salt monohydrate]",Decrease (%) in acidity of gastric juice,gastric acid secretion; monohydrate,31%
same,Decrease (%) in pepsin concentration,pepsin secretion; monohydrate,92%
"CC(C)c1cc2c(cc1S(=O)(=O)O)[C@@]1(C)CCC[C@@](C)(C(=O)O)[C@@H]1CC2 [2 (2-Methoxyethyl)amine salt, sulfodehydroabietic acid di(2-methoxyethylamine)salt]",Decrease (%) in pepsin concentration,pepsin secretion,98%
"CC(C)c1cc2c(cc1S(=O)(=O)O)[C@@]1(C)CCC[C@@](C)(C(=O)O)[C@@H]1CC2 [2 Cyclohexylamine salt, sulfodehydroabietic acid di(cyclohexylamine)salt]",Decrease (%) in pepsin concentration,pepsin secretion,71%
"CC(C)c1cc2c(cc1S(=O)(=O)O)[C@@]1(C)CCC[C@@](C)(C(=O)O)[C@@H]1CC2 [2 Isopropylamine salt, sulfodehydroabietic acid di(isopropylamine)salt]",Decrease (%) in acidity of gastric juice,gastric acid secretion,40%
same,Decrease (%) in pepsin concentration,pepsin secretion,95%
"CC(C)c1cc2c(cc1S(=O)(=O)O)[C@@]1(C)CCC[C@@](C)(C(=O)O)[C@@H]1CC2 [2 Morpholine salt, sulfodehydroabietic acid dimorpholine salt hemihydrate]",Decrease (%) in pepsin concentration,pepsin secretion; hemihydrate,92%
"CC(C)c1cc2c(cc1S(=O)(=O)O)[C@@]1(C)CCC[C@@](C)(C(=O)O)[C@@H]1CC2 [2/3 Aluminum salt, sulfodehydroabietic acid 2/3 aluminum ssalt 7/3 hydrate]",Decrease (%) in pepsin concentration,pepsin secretion; hydrate,95%
"CC(C)c1cc2c(cc1S(=O)(=O)O)[C@@]1(C)CCC[C@@](C)(C(=O)O)[C@@H]1CC2 [Carnosine salt, sulfodehydroabietic acic carnosine salt monohydrate]",Decrease (%) in pepsin concentration,pepsin secretion; monohydrate,72%
same,Preventive effect on aspirin-induced ulcers,"aspirin-induced ulcers; p.o. 2 m mol./kg (1,248 mg/kg)",33%
"CC(C)c1cc2c(cc1S(=O)(=O)O)[C@@]1(C)CCC[C@@](C)(C(=O)O)[C@@H]1CC2 [Ethylenediamine salt, sulfodehydroabietic acid ethylenediamine salt hemihydrate]",Decrease (%) in pepsin concentration,pepsin secretion; hemihydrate,94%
"CC(C)c1cc2c(cc1S(=O)(=O)O)[C@@]1(C)CCC[C@@](C)(C(=O)O)[C@@H]1CC2 [Hexamethylenediamine salt, sulfodehydroabietic acid hexamethylenediamine salt hemihydrate]",Decrease (%) in acidity of gastric juice,gastric acid secretion; hemihydrate,32%
same,Decrease (%) in pepsin concentration,pepsin secretion; hemihydrate,94%
"CC(C)c1cc2c(cc1S(=O)(=O)O)[C@@]1(C)CCC[C@@](C)(C(=O)O)[C@@H]1CC2 [L-Arginine salt, sulfodehydroabietic acid L-arginine salt hemihydrate]",Decrease (%) in pepsin concentration,pepsin secretion; hemihydrate,77%
"CC(C)c1cc2c(cc1S(=O)(=O)O)[C@@]1(C)CCC[C@@](C)(C(=O)O)[C@@H]1CC2 [L-Asparagine salt, sulfodehydroabietic acid L-asparagine salt monohydrate]",Decrease (%) in acidity of gastric juice,gastric acid secretion; monohydrate,38%
same,Decrease (%) in pepsin concentration,pepsin secretion; monohydrate,90%
"CC(C)c1cc2c(cc1S(=O)(=O)O)[C@@]1(C)CCC[C@@](C)(C(=O)O)[C@@H]1CC2 [L-Glutamine salt, sulfodehydroabietic acid L-glutamine salt hemihydrate]",Decrease (%) in acidity of gastric juice,gastric acid secretion; hemihydrate,39%
same,Decrease (%) in pepsin concentration,pepsin secretion; hemihydrate,90%
"CC(C)c1cc2c(cc1S(=O)(=O)O)[C@@]1(C)CCC[C@@](C)(C(=O)O)[C@@H]1CC2 [L-Lysine salt, sulfodehydroabietic acid L-lysine salt monohydrate]",Decrease (%) in pepsin concentration,pepsin secretion; monohydrate,94%
"CC(C)c1cc2c(cc1S(=O)(=O)O)[C@@]1(C)CCC[C@@](C)(C(=O)O)[C@@H]1CC2 [L-S--Methylmethionine salt, sulfodehydroabietic acid S-methyl-L-methionine salt dihydrate]",Decrease (%) in pepsin concentration,pepsin secretion; dihydrate,84%
same,Preventive effect on aspirin-induced ulcers,"aspirin-induced ulcers; p.o. 2 m mol./kg (1,086 mg/kg)",85%
"CC(C)c1cc2c(cc1S(=O)(=O)O)[C@@]1(C)CCC[C@@](C)(C(=O)O)[C@@H]1CC2 [Tetramethylenediamine salt, sulfodehydroabietic acid tetramethylenediamine salt hemihydrate]",Decrease (%) in acidity of gastric juice,gastric acid secretion; hemihydrate,36%
same,Decrease (%) in pepsin concentration,pepsin secretion; hemihydrate,84%
sulfodehydroabietic acid (aluminum monohydroxide) [Aluminum monohydroxide salt],Decrease (%) in pepsin concentration,pepsin secretion,91%
sulfodehydroabietic acid di(aluminum dihydroxide)salt dihydrate [2 Aluminum dihydroxide salt],Decrease (%) in pepsin concentration,pepsin secretion,69%
